Legend:
[1] = target: T1, integrin αvβ3 (vitronectin receptor purified from the human placenta) (Homo sapiens, UniProt P05106+P06756); assay: αvβ3 binding assay (vitronectin-vitronectin receptor binding assay); conditions: vitronectin binding to human placenta vitronectin receptor; read-out: integrin αvβ3 antagonistic activity, IC50 value
T1 construct: a vitronectin receptor (protein content: 118 μg/ml) purified from the human placenta; from tissue; host or cells: human placenta
Protocol: Integrin αvβ3 antagonistic activity was measured for the compounds according to the present invention in a vitronectin-vitronectin receptor binding assay system in accordance with the method of Kouns et al. (W. C. Kouns, D. Kirchhofer, P. Hadvary, A. Edenhofer, T. Weller, G. Pfenninger, H. R. Baumgartner, L. K. Jennings and B. Steiner, Blood, 80, 2539-2547 (1992)).
Specifically, a vitronectin receptor (protein content: 118 μg/ml) purified from the human placenta in accordance with the method of Pytela et al. (R. Pytela, M. D. Pierschbacher, S. Argraves, S. Suzuki, and E. Ruoslahti, Method in Enzymology, 144, 475-489 (1987)) was diluted 50 times with TBS (20 mM Tris-HCl, 150 mM NaCl, 1 mM CaCl2, 1 mM MgCl2, pH 7.4), and distributed and coated on wells (50 μl/well) of a plate (Maxisorp, Nunc, 96 well Immuno Plate). The plate was then allowed to stand at 4° C. for 1 day, washed twice with TBS (200 μl/well), and then subjected to blocking with TBS (150 μl/well) containing 1% bovine serum albumin (SIGMA) at 4° C. overnight. After washing twice with TBS (200 μl/well), 50 μl of vitronectin (CALBIOCHEM) adjusted to 0.2 μg/ml by the addition of TBS (TBS-Tween) containing 0.01% Tween-20 was mixed with 50 μl of each test compound adjusted to each concentration in wells, and a reaction was allowed to proceed at room temperature for 4 hr. After the completion of the reaction, the wells were washed five times with TBS-Tween. A solution prepared by diluting anti-vitronectin rabbit antiserum (CHEMICON) 500 times with TBS-Tween was added as a primary antibody in an amount of 50 μl/well, and a reaction was allowed to proceed at room temperature for 1.5 hr. After washing five times with 200 μl/well of TBS-Tween, a peroxidase (POD)-labeled anti-rabbit IgG antibody solution (CAPPEL) diluted 500 times with TBS-Tween was added as a secondary antibody in an amount of 50 μl/well, and a reaction was allowed to proceed at room temperature for 1.5 hr. After washing five times with TBS-Tween (200 μl/well), ABTS (2,2′-azino-bis(3-ethylbenzthiazoline-6-sulfonic acid), SIGMA) was adjusted to 1 mg/ml by the addition of a ten-fold diluted POD-buffer (ZYMED), and added in an amount of 50 μl/well, and a reaction was allowed to proceed for 5 to 10 min. A 0.1 M citric acid buffer (pH 4.3) containing 0.05% NaN3 was added in an amount of 50 μl/well to stop the reaction, followed by the measurement of the absorbance at 415 nm with a microplate reader (MTP 32, Corona Electric) (reference: 675 nm). The total binding was defined as the absorbance after a reaction using 50 μl of TBS-Tween instead of the test compound, and the non-specific binding (100% inhibition) was defined as the absorbance after a reaction using 50 μl of TBS-Tween containing 2×10^−3 M RGDS. The inhibition was calculated by the following equation: [formula]
IC50 was determined from a primary regression line of the logarithm of each concentration of the test compound and the logarithm of (100−inhibition)/inhibition.

GP IIb/IIIa = GP IIb/IIIa (Homo sapiens, UniProt P05106+P08514); assay: GP IIb/IIIa antagonistic activity (method of Pharmacological Test 2 in WO 94/21599); format: binding
Protocol: (§1) GP IIb/IIIa Antagonistic Activity and Human Platelet Aggregation Inhibitory Activity
GP IIb/IIIa antagonistic activity was measured for the compounds according to the present invention. The measurement of the GP IIb/IIIa antagonistic activity was carried out according to the method described in Pharmacological Test 2 in WO 94/21599.

[2] = test system: human platelet aggregation; assay: Human platelet aggregation inhibitory activity (method of Pharmacological Test 1 in WO 94/21599); format: cell-based; conditions: human platelets, read-out: inhibition of human platelet aggregation, IC5. value
Protocol: as §1
Human platelet aggregation inhibitory activity was measured for the compounds according to the present invention. The measurement of the human platelet aggregation activity was carried out according to the method described in Pharmacological Test 1 in WO 94/21599.

[3] = test system: human vascular smooth muscle cells adhering to immobilized human vitronectin; assay: Inhibitory activity against adhesion of human vascular smooth muscle cells to vitronectin; format: cell-based; conditions: 1.5 h; human vitronectin-coated plate, 90 min
Protocol: Inhibitory Activity Against Adhesion of Human Vascular Smooth Muscle Cells to Vitronectin
The adhesion of human vascular smooth muscle cells =+to immobilized human vitronectin was measured in accordance with the method of Liaw et al. (Liaw L, Almeida M, Hart C E, Schwartz S M, and Giachelli C M, Circulation Research, 74 (2), 214-224 (1994)).
A Dulbecco's phosphate buffer (Dulbecco's PBS(−), Nissui Pharmaceutical Co., Ltd.) solution of human plasma-derived vitronectin (CALBIOCHEM) adjusted to a concentration of 4 μg/ml was first added to wells (50 μl/well) of a microplate (Maxisorp, Nunc), and a reaction for immobilization was allowed to proceed at 4° C. overnight. After washing twice with 150 μl of Dulbecco's phosphate buffer, a Dulbecco's phosphate buffer containing 10 mg/ml of bovine serum albumin (SIGMA) was added, followed by blocking at 37° C. for one hr. The assay plate was washed twice with 150 μl of Dulbecco's phosphate buffer.
Separately, human vascular smooth muscle cells cultivated at 37° C. under 5% carbon dioxide in a medium for vascular smooth muscle cells (Clonetics) were separated using a Dulbecco's phosphate buffer containing trypsin-EDTA (GIBCO BRL), washed with Dulbecco's phosphate buffer, and then suspended in a Dulbecco's modified Eagle's basal medium (Nissui Pharmaceutical Co., Ltd.) containing 0.1% bovine serum albumin to a concentration of 5×10^5/ml.
Next, 50 μl of a Dulbecco's modified Eagle's basal medium containing 10 mg/ml of bovine serum albumin with a medicament added thereto was added to the wells of the human vitronectin-coated assay microplate, followed by pre-cultivation under 5% carbon dioxide at 37° C. for 10 min. Thereafter, 50 μl of the medium with human vascular smooth muscle cells suspended therein was added thereto, and the plate was thoroughly stirred. A reaction was allowed to proceed under 5% carbon dioxide at 37° C. for 90 min. The reaction solution containing non-adherent cells were then removed, followed by washing three times with Dulbecco's phosphate buffer. For the adhered cells, 100 μl of a Dulbecco's phosphate buffer containing 4% paraformaldehyde (Wako Pure Chemical Industries, Ltd.) was added, and immobilization was allowed to proceed at room temperature for 10 min. Next, 100 μl of a Dulbecco's phosphate buffer containing 0.5% Toluidine Blue (Croma) and 4% paraformaldehyde was added, and staining was allowed to proceed at room temperature for 5 min, followed by thorough washing with distilled water. The inside of the wells was then air-dried, and a 1% aqueous sodium dodecylsulfate solution was then added to perform cytolysis. The absorbance of the microplate thus obtained was measured at 595 nm. […] The inhibition was calculated by the following equation. IC50 was determined from a primary regression line of the logarithm of each concentration of the test compound and the logarithm of (100−inhibition)/inhibition. [formula]

Oral absorption in rats = format: in vivo; conditions: data not shown
From the text: Therefore, any of the compounds, wherein R^12 represents an alkyl group or a hydrogen atom, can be used in the treatment of the above diseases.

Sequence of GP IIb/IIIa (P08514 32-887 limits assumed): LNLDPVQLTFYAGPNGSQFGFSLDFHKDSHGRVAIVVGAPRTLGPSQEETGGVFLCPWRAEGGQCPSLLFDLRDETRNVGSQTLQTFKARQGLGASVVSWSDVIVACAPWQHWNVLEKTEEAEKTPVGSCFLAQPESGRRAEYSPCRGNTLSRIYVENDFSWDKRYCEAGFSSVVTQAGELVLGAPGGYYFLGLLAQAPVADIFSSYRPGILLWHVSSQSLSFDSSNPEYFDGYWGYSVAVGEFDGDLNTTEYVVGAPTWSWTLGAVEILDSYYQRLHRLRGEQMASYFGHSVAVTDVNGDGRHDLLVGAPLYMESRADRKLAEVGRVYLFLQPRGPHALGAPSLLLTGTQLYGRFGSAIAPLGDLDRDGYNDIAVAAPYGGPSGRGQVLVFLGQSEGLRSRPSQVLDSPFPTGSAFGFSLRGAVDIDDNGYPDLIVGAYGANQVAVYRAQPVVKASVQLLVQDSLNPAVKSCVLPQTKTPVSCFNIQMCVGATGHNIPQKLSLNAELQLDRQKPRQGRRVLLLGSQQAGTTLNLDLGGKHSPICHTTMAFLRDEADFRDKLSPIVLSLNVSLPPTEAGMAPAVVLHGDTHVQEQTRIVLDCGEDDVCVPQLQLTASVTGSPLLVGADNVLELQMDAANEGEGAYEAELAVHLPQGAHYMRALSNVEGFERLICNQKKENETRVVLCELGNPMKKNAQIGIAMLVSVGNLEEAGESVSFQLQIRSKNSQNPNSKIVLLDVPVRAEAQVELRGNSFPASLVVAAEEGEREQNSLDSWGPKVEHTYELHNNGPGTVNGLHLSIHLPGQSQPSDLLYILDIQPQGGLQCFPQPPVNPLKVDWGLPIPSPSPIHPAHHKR
Sequence of GP IIb/IIIa (P08514 891-1039 limits assumed): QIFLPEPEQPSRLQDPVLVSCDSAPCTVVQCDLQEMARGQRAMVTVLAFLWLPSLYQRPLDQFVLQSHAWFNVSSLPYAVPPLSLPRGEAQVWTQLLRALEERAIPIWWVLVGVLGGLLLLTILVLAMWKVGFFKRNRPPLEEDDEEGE
Sequence of GP IIb/IIIa (P05106 27-788): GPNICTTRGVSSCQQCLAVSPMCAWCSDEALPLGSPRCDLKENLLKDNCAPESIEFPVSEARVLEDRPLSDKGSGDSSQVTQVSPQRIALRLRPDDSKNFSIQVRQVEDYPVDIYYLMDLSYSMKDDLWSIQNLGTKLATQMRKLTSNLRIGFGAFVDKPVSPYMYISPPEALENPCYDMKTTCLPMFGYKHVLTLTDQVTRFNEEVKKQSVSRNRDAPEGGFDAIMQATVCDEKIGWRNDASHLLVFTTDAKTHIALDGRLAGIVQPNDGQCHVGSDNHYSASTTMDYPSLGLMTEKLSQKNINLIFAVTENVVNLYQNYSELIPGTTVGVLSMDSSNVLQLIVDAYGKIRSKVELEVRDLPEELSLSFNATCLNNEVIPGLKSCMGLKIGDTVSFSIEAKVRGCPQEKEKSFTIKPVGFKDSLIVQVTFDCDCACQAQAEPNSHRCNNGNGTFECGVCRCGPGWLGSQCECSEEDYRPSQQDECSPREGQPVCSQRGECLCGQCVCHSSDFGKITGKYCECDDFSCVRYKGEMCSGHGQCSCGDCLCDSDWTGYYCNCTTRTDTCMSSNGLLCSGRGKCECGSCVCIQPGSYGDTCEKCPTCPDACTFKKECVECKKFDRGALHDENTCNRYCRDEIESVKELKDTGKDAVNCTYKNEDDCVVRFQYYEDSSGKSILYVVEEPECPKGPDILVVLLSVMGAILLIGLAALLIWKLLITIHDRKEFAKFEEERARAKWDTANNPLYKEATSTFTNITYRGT
T1 sequence (P06756 31-889 limits assumed): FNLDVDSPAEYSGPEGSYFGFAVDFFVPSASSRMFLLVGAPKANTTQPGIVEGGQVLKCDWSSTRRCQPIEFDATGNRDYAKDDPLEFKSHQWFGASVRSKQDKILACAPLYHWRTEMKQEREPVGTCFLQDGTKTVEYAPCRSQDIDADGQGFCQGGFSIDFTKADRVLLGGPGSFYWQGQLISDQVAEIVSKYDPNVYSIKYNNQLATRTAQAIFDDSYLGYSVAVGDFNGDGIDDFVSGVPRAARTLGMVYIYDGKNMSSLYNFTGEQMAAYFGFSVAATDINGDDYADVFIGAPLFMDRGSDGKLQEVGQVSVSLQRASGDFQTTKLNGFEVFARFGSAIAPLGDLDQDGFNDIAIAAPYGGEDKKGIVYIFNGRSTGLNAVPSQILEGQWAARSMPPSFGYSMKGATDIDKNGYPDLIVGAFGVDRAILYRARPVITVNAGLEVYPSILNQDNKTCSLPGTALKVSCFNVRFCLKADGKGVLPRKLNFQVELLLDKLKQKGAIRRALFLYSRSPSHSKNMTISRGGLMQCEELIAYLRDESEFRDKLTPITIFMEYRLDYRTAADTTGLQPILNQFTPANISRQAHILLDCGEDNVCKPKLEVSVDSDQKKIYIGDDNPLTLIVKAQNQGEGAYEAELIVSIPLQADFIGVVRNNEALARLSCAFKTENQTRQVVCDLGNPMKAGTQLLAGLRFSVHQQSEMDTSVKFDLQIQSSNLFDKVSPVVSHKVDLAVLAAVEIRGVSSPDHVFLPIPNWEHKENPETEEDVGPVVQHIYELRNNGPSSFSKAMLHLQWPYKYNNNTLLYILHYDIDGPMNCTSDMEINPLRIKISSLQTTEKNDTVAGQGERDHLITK
T1 sequence (P06756 891-1048 limits assumed): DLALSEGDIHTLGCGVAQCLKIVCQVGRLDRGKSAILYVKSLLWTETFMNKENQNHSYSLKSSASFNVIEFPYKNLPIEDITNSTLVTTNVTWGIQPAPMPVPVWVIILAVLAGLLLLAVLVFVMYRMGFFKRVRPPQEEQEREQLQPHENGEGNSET
T1 sequence (P05106 27-788): as the sequence (P05106 27-788) above

| IC50 [1] [nM] | IC50 (GP IIb/IIIa) [nM] | IC50 [2] [nM] | IC50 [3] [nM] | Compound | oral absorption (Oral absorption in rats) |
| --- | --- | --- | --- | --- | --- |
| ≤ 1 | ≤ 1 | ≤ 90 | ≤ 70 | O=C(NC[C@H](NS(=O)(=O)c1ccccc1)C(=O)O)c1ccc(N2CCC(NC3=NCCCN3)CC2)c(Cl)c1 [Example 60, (2S)-Benzenesulfonylamino-3-[3-chloro-4-{4-(1,4,5,6-tetrahydropyrimidin-2-ylamino)piperidin-1-yl}-benzoylamino]propionic acid] |  |
|  |  |  |  | O=C(NC[C@H](NS(=O)(=O)c1ccccc1)C(=O)O)c1ccc(N2CCC(Nc3ncccn3)CC2)c(Cl)c1 [Example 59, (2S)-Benzenesulfonylamino-3-[3-chloro-4-{4-(pyrimidin-2-ylamino)piperidin-1-yl}benzoylamino]-propionic acid] | had oral absorption |

From patent US6420558B1, “Aminopiperidine derivates as integrin αvβ3 antagonists” (Meiji Seika Kaisha, Ltd., priority 1998, dated 2002)
